pEC50, pIC50: −log10 of the molar value.

This is an account of results in patent US20250042922A1, “KRAS MODULATING COMPOUNDS” (priority 2023, published 2025).

Assay [1] deals with cellular pERK in NCI-H441 (KRAS-G12V) cells. Nature of the assay: Cell based pERK assay, NCI-H441. Conditions: Homo sapiens; NCI-H441 (KRAS-G12V), 2 hours incubation, HTRF phospho-ERK1/2; read-out: H441 PERK EC50. The method, boiled down: (§1)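 Cells seeded overnight (5000 AsPC-1 or 7500 others per well; RPMI/10% FBS, DMEM/10% FBS for MIA-PaCa-2), treated with 1:3 serial dilutions for 2 h at 37 °C. Phospho-ERK1/2 (Thr202/Tyr204) measured by HTRF (665/615 nm) after overnight lysis, normalized to DMSO and saturating known-inhibitor controls.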
For orientation: Time-resolved FRET reads energy transfer from a long-lived donor to a nearby acceptor.

The target of the next assay is GDP-loaded KRAS-G12V (Homo sapiens, UniProt P01116, G12V). Nature of the assay: KRAS (GDP) biochemical TR-FRET probe displacement assay, G12V. The class given is binding. Conditions: 2 hours. How it is done: (§2) Compounds are tested for binding to GDP-loaded wild-type KRAS (WT), KRAS-G12C, KRAS-G12D, and KRAS-G12V in a 384-well assay format using a TR-FRET probe displacement assay in buffer consisting of 50 mM Hepes (pH 7.4), 150 mM NaCl, 5 mM MgCl2 and 0.005% Tween-20. […] Compounds are serially diluted (1:3) in DMSO. The LabCyte ECHO Acoustic dispenser was used to pre-spot the assay plates (384-well Non-Binding Surface plates, Corning, Catalog #3824) with 50 nL of compound. 5 μL of 2X enzyme concentration is added to the pre-spotted plates and incubated for 30 minutes before adding 5 μL of 2X concentration of Eu-streptavidin and Cy-5 labelled probe (10 μL final reaction volume). The plates are incubated at room temperature for 2 hours before measuring TR-FRET ratio (665 nm/615 nm) on the Envision multimode plate reader. The ratios are normalized to a positive (saturating concentration of known inhibitor) and negative (DMSO) control and plotted against the log of compound concentration.
Sequence of GDP-loaded KRAS-G12V (P01116 1-188 isoform P01116-2 G12V): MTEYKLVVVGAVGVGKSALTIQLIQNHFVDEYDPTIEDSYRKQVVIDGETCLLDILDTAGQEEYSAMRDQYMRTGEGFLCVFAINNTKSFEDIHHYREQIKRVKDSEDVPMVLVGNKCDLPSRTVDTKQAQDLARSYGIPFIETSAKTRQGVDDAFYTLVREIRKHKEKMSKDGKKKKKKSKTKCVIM

Assay [2] deals with cellular pERK in ASPC-1 (KRAS G12D) cells. Nature of the assay: Cell based pERK assay, ASPC-1. Conditions: Homo sapiens, ASPC1; ASPC-1 (KRAS G12D), 2 hours incubation, HTRF phospho-ERK1/2; read-out: AsPC1 pERK EC50. In a few lines:
as §1

In another assay the target is GDP-loaded KRAS-G12C (Homo sapiens, UniProt P01116, G12C). Description: KRAS (GDP) biochemical TR-FRET probe displacement assay, G12C. The assay is classed as binding. Conditions: 2 hours. Here is the method:
as §2

In assay [3] the target is GDP-loaded wild-type KRAS (WT) (Homo sapiens, UniProt P01116). Nature of the assay: KRAS (GDP) biochemical TR-FRET probe displacement assay, WT. Conditions: 2 hours. The assay is classed as binding. How it is done:
as §2

Assay [4] deals with cellular pERK in MIA-PaCa-2 (KRAS-G12C) cells. Nature of the assay: Cell based pERK assay, MIA-PaCa-2. Conditions: Homo sapiens; MIA-PaCa-2 (KRAS-G12C), 2 hours incubation, HTRF phospho-ERK1/2; read-out: MIAPaCa2 pERK EC50. The method, boiled down:
as §1

Assay [5] has as its system cellular pERK in Kuramochi (WT KRAS) cells. Description: Cell based pERK assay, Kuramochi. Conditions: Kuramochi (WT KRAS), 2 hours incubation, HTRF phospho-ERK1/2; read-out: Kuramochi pERK EC50. In a few lines:
as §1

The next assay has as its target GDP-loaded KRAS-G12D (Homo sapiens, UniProt P01116, G12D). Description: KRAS (GDP) biochemical TR-FRET probe displacement assay, G12D. The assay is classed as binding. Conditions: 2 hours. How it is done:
as §2

Sequence of GDP-loaded KRAS-G12C (P01116 1-188 isoform P01116-2 G12C): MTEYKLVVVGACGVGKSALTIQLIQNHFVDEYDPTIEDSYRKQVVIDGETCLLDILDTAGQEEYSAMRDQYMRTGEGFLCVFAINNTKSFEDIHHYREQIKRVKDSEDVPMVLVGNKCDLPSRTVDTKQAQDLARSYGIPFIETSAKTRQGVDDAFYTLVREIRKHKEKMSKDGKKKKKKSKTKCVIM
Sequence of GDP-loaded wild-type KRAS (WT) (P01116 1-188 isoform P01116-2): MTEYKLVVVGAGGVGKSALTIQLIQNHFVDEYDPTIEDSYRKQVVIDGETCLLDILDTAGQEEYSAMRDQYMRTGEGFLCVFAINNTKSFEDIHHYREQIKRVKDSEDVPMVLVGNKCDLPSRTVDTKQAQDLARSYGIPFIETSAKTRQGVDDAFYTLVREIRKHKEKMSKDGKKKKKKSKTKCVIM
Sequence of GDP-loaded KRAS-G12D (P01116 1-188 isoform P01116-2 G12D): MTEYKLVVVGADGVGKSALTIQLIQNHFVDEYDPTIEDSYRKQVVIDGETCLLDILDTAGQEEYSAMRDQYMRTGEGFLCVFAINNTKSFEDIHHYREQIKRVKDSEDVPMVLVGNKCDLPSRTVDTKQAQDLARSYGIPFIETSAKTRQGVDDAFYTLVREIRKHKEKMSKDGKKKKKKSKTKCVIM

Turning to `Cc1c(F)c(N)cc(-c2nc3c4c(nc(OCC56CCCN5CCC6)nc4c2F)N2C[C@@]4(F)CC[C@](F)(N4)[C@@H]2[C@@H](C)C3)c1C(F)(F)F` [Example 4-13, 2-fluoro-3-methyl-5-((5S,5aS,6R,9S)-1,6,9-trifluoro-5-methyl-12-((tetrahydro-1H-pyrrolizin-7a(5H)-yl)methoxy)-4,5,5a,6,7,8,9,10-octahydro-3,10a,11,13,14-pentaaza-6,9-methanonaphtho[1,8-ab]heptalen-2-yl)-4-(trifluoromethyl)aniline], the pEC50 – broadly, −log10 of the EC50, conventionally taken in molar units – in assay [1] is 7.74; in assay [2], 6.96; in assay [4] it was 8.25; in assay [5], 8.56. Besides, the pIC50 (in general, the IC50 on a negative log10 scale, so that one unit is a factor of ten) at GDP-loaded KRAS-G12V is 8.09; at GDP-loaded KRAS-G12C it was 8.42; in assay [3], 9.39; on GDP-loaded KRAS-G12D it was 7.70.
`C[C@H]1Cc2nc(-c3ccc(F)c4sc(N)c(C#N)c34)c(F)c3nc(OCC45CCCN4CCC5)nc(c23)N2C[C@@]3(F)CC[C@](F)(N3)[C@H]12` [Example 4-14, 2-amino-7-fluoro-4-((5S,5aS,6R,9S)-1,6,9-trifluoro-5-methyl-12-((tetrahydro-1H-pyrrolizin-7a(5H)-yl)methoxy)-4,5,5a,6,7,8,9,10-octahydro-3,10a,11,13,14-pentaaza-6,9-methanonaphtho[1,8-ab]heptalen-2-yl)benzo[b]thiophene-3-carbonitrile]: the pEC50 in assay [1] is 8.28; in assay [2], 7.40; in assay [4] it was 8.94; in assay [5], 7.97. For the same compound, the pIC50 was 9.27 at GDP-loaded KRAS-G12V, 9.27 at GDP-loaded KRAS-G12C, 9.49 in assay [3] and 8.94 at GDP-loaded KRAS-G12D.
Turning to `N#Cc1c(N)sc2c(F)ccc(-c3nc4c5c(nc(OC[C@@]67CCCN6C[C@H](F)C7)nc5c3F)N3C[C@@]5(F)CC[C@](F)(N5)[C@@H]3CC4)c12` [Example 4-21, 2-amino-7-fluoro-4-((5aS,6R,9S)-1,6,9-trifluoro-12-(((2R,7aS)-2-fluorotetrahydro-1H-pyrrolizin-7a(5H)-yl)methoxy)-4,5,5a,6,7,8,9,10-octahydro-3,10a,11,13,14-pentaaza-6,9-methanonaphtho[1,8-ab]heptalen-2-yl)benzo[b]thiophene-3-carbonitrile], the pEC50 is 8.96 in assay [1], 8.22 in assay [2], 9.50 in assay [4] and 8.76 in assay [5]. In addition, the pIC50 at GDP-loaded KRAS-G12V was 9.07; on GDP-loaded KRAS-G12C it was 9.44; in assay [3], 9.74; on GDP-loaded KRAS-G12D, 8.64.
For `Oc1cc(-c2nc3c4c(nc(OCC56CCCN5CCC6)nc4c2F)N2C[C@@]4(F)CC[C@](F)(N4)[C@H]2CCC3)c2c(OC(F)(F)F)c(F)ccc2c1` [Example 4-23, 6-fluoro-4-[(4S,7R,8R)-4,7,15-trifluoro-18-(1,2,3,5,6,7-hexahydropyrrolizin-8-ylmethoxy)-2,13,17,19,21-pentazapentacyclo[10.7.1.14,7.02,8.016,20]henicosa-1(19),12(20),13,15,17-pentaen-14-yl]-5-(trifluoromethoxy)naphthalen-2-ol], the pEC50 is 8.16 in assay [1], 7.29 in assay [2], 8.92 in assay [4] and 8.59 in assay [5]. For the same compound, the pIC50 is 8.67 at GDP-loaded KRAS-G12V, 9.23 at GDP-loaded KRAS-G12C, 9.30 in assay [3] and 8.44 on GDP-loaded KRAS-G12D.
As to `Cn1ccc2cc(N)cc(-c3nc4c5c(nc(OCC67CCCN6CCC7)nc5c3F)N3C[C@@]5(F)CC[C@](F)(N5)[C@H]3CCC4)c2c1=O` [Example 4-25], the pEC50 in assay [1], in assay [2], in assay [4] and in assay [5] was less than 6.00 in each case. Also, the pIC50 (at GDP-loaded KRAS-G12V; at GDP-loaded KRAS-G12C; in assay [3]; at GDP-loaded KRAS-G12D) was less than 7.00 throughout.
